Assay results as given in patent publication US5328913A, “Minoxidil analogs as inhibitors of cell proliferation and lysyl hydroxylase” (priority 1992, dated 1994).
Entries after “also recorded” stand apart in the source; their conditions may differ.

Key:
Format in all cases: cell-based
[1] = system: prolyl hydroxylase; experiment: Prolyl hydroxylase activity in extracts of treated human skin fibroblasts (Example 2); conditions: 72 hr; N,N-diethyl analog up to 2 mM
Protocol: (§1) Cells were treated for 72 hr with minoxidil or its triazine analog at the indicated concentrations. The enzyme activities in extracts of treated cells were measured by tritium release assays (Murad and Pinnell, J. Biol. Chem. 262:11,973 (1987)) and are expressed as a percentage of zero-concentration values. PH, prolyl hydroxylase; LH, lysyl hydroxylase.
Cultures of human skin fibroblast (1.5×10^6 cells) were seeded onto 100-mm plates and incubated at 37° in Dulbecco's modified Eagle's medium supplemented with 20% calf serum. After 24 hr, the medium was replaced with medium supplemented with 0.5% heat-inactivated dialyzed calf serum. […] Cells treated with HCl only served as control. […]
Lysyl hydroxylase activity in extracts of treated cells was measured with an underhydroxylated procollagen substrate (Murad et al, J. Biol. Chem. 262:11,973 (1987)), which was prepared by labeling cultures of human skin fibroblasts with L-[4,5-^3 H]lysine in the presence of an iron chelator α,α'-dipyridyl (Murad and Pinnell, Conn. Tiss. Res. 13:181 (1985)). The amount of tritium released was quantitated as ^3 HO after vacuum distillation . Prolyl hydroxylase activity was similarly measured with an underhydroxylated procollagen substrate containing L-[4-^3 H]proline (Murad and Pinnell, J. Biol. Chem. 262:11973 (1987); Murad and Pinnell, Conn. Tiss. Res. 13:181 (1985)). […]

[2] = system: lysyl hydroxylase; experiment: Lysyl hydroxylase activity in extracts of treated human skin fibroblasts (Example 2, pyridine, triazine and N-alkyl analogs); conditions: for IC50: 72 hr (FIG. 4, FIG. 5), read-out: concentration giving 50% inhibition (lysyl hydroxylase)
Protocol: as §1
Cells were treated for 72 hr with various concentrations of minoxidil or its N-alkyl analogs as indicated. The enzyme activity in extracts of treated cells was measured by tritium release assays (Murad and Pinnell, J. Biol. Chem. 262:11,973 (1987)) and is expressed as a percentage of zero-concentration value. The minoxidil curve is reproduced from FIG. 4.
Cultures of human skin fibroblast (1.5×10^6 cells) were seeded onto 100-mm plates and incubated at 37° in Dulbecco's modified Eagle's medium supplemented with 20% calf serum. After 24 hr, the medium was replaced with medium supplemented with 0.5% heat-inactivated dialyzed calf serum. The incubation was continued for an additional 72 hr in the presence of 0.1-2 μM minoxidil analogs dissolved in 0.12N HCl; the final concentration of HCl was 0.0012N or 0.0024N. Cells treated with HCl only served as control. During the last 3 hr of incubation, cells received […] ascorbic acid to ensure complete hydroxylation of the polypeptide precursors of procollagen (Murad et al, J. Invest. Dermatol. 75:404 (1980)). At the end of the incubation period, cells were harvested by trypsinization and disrupted by sonication in a buffered medium (Murad et al, J. Biol. Chem. 262:11,973 (1987)).
Lysyl hydroxylase activity in extracts of treated cells was measured with an underhydroxylated procollagen substrate (Murad et al, J. Biol. Chem. 262:11,973 (1987)), which was prepared by labeling cultures of human skin fibroblasts with L-[4,5-^3 H]lysine in the presence of an iron chelator α,α'-dipyridyl (Murad and Pinnell, Conn. Tiss. Res. 13:181 (1985)). The amount of tritium released was quantitated as ^3 HO after vacuum distillation . Prolyl hydroxylase activity was similarly measured with an underhydroxylated procollagen substrate containing L-[4-^3 H]proline (Murad and Pinnell, J. Biol. Chem. 262:11973 (1987); Murad and Pinnell, Conn. Tiss. Res. 13:181 (1985)). The enzyme activities are based on a unit of soluble cell protein. The protein content of cell extracts was determined by a dye-binding techniques using Bio-Rad reagents (Bradford, Anal. Biochem. 72:248 (1976)).
Cells were treated for 72 hr with 1 mM minoxidil or its
structural analogs as indicated. The enzyme activity in extracts
of treated cells was measured by a tritium-release assay and is
expressed as a percentage of HCl-treated control.

[3] = system: lysyl hydroxylase; experiment: Lysyl hydroxylase activity in extracts of treated human skin fibroblasts (Example 1, tritium-release assay); conditions: for Lysyl hydroxylase activity (%) / effect on lysyl hydroxylase activity (in words): 72 h; for Lysyl hydroxylase activity (%): 1% ethanol; for effect on lysyl hydroxylase activity (in words): cultured fibroblasts, Example 1; for increase of the level of lysyl hydroxylase activity: 72 h (Table I text)
Protocol: (§2) Cultures of human skin fibroblasts grown to confluence were incubated for 72 h in medium supplemented with 1% ethanol containing various concentrations of minoxidil or deoxyminoxidil as indicated. Cells were then harvested, and the enzyme activities in extracts of these cells were measured by tritium-release assays (Murad and Pinnell, J. Biol. Chem. 262:11,973 (1987)). The results are expressed as percentages of zero-concentration values.
as §2, with “with 1% acetone containing various concentrations of minoxidil sulfate,” for “deoxyminoxidil”, “tritium release” for “tritium-release”
Skin fibroblast cultures derived from an apparently normal child (GM05659) were obtained from the Institute for Medical Research, Camden, N.J. The cells were subcultured by trypsinization and used before 25 population doublings. Typically, 4×10^5 cells were seeded onto 100-mm (diameter) plastic petri dishes and allowed to grow in 10 ml of Dulbecco's modified Eagle's minimum essential medium containing 5.6 mM glucose, buffered in pH 7.4 with 24 mM sodium biocarbonate/25 mM Hepes and supplemented with 20% (v/v) calf serum which had been inactivated for 30 min at 56° C. The cells were incubated at 37° C. in a humidified atmosphere of 5% CO2 plus 95% air.
After a week, the medium was replaced with medium supplemented with 0.5% heat-inactivated diaylzed calf serum, and the incubation was continued for 72 h in the presence of minoxidil or one of its structural analogs. The compounds were dissolved in 95% ethanol, except minoxidil sulfate which was dissolved in acetone; the final solvent concentration was 1% (v/v). During the last 3 h of incubation, cells received 100 μM Na L-ascorbate to ensure complete hydroxylation of the polypeptide precursors of precollagen (Murad et al, J. Invest. Dermatol. 75:404 (1980)).
The medium was then removed and the cells were washed twice with a solution containing 0.14 M NaCl, 5 mM KCl, 0.3 mM Na2 PO4, and 0.4 mM KH2 PO4, adjusted to pH 7.4. The cells were detached from the plates with a solution containing 0.05% trypsin, 0.54 mM EDTA, 5.5mM glucose, 6.90mM NaHCO3, […], and 5 mM KCl. The trypsinization was terminated with 2 vol of 20% serum-supplemented medium, and the cell number in an aliquot of the suspension was determined using a Coulter counter.
The detached cells were collected by centrifugation at 500g for 6 min at 4° C. washed twice by suspending in phosphate-buffered NaCl/KCl as above, and then centrifuged. The cell pellet was suspended in a medium (1 ml/5×10^6 cells) containing 0.2 M NaCl, 0.1 M glycine, 50 μM dithiothreitol, 20 mM Tris-HCl, buffer (pH 7.5), 0.1% Triton X-100, and 0.01% soybean trypsin inhibitor. The suspension was sonicated for 30 s using a Branson sonifier cell disrupter. The lysate was centrifuged at 27,000g for 1 h at 4° C., and the resulting supernatant was used for prolyl and lysyl hydroxylase assays (Murad and Pinnell, J. Biol. Chem. 262:11, 973 (1987)). The enzyme activities are based on a unit of soluble cell protein.
The protein content of cell extracts was determined by a dye-binding technique using Bio-Rad reagent and protein standard (Bradford, Anal. Biochem. 72:248 (1976)).
Note: Cultures of human skin fibroblasts grown to confluence were
incubated for 72 h in medium supplemented with 1% ethanol containing 1 mM
of the indicated compounds. Cells were then harvested, and the enzyme
activity in extracts of these cells was measured by a tritiumrelease
incubated for 72 h in medium supplemented with 1% ethanol containing 1 nM

[4] = system: lysyl hydroxylase; experiment: as above
[5] = 1 nM, % of ethanol-treated controls (Table II)
[6] = 1 mM, % of solvent-treated controls (Table I)

Nc1nc(N2CCCCC2)nc(N)[n+]1[O-] [Compound II (Table III)]
effect on prolyl hydroxylase activity (in words) [1]: failure to decrease the activity of prolyl hydroxylase | IC50 [2]: ~800 µM | effect on lysyl hydroxylase activity (in words) ([2]; 72 hr, Example 2, listed as triazine analog): no significant effect up to 0.2 mM; also recorded: less potent than minoxidil

CCN(CC)c1cc(N)[n+]([O-])c(N)n1 [Compound III (Table III)]
effect on prolyl hydroxylase activity (in words) [1]: no significant effect on prolyl hydroxylase activity | IC50 [2]: ~1000 µM

Cc1cc(N2CCOCC2)nc(N)[n+]1[O-] [Compound VIII (Table II)]
Lysyl hydroxylase activity (%) [3, 5]: 91% | effect on lysyl hydroxylase activity (in words) [3]: inactive

Cc1c([N+](=O)[O-])c(N2CCCCC2)nc(N)[n+]1[O-] [Compound VI (Table II)]
Lysyl hydroxylase activity (%) [3, 5]: 34% | effect on lysyl hydroxylase activity (in words) [3]: no significant effect on its inhibitory activity

O=C(O)c1cc[n+]([O-])cc1 [Isonicotinic acid N-oxide]
Lysyl hydroxylase activity (%) ([4]; 1 mM, dissolved in aqueous medium, 72 h, % of solvent-treated controls (Table I)): 90%

CN1CCN(c2cc(N)[n+]([O-])c(N)n2)CC1 [Compound IX (Table II)]
Lysyl hydroxylase activity (%) ([4]; 0.1 mM, dissolved in HCl, final concentration 0.0012 N, 72 h (Table II footnote a)): 109% | effect on lysyl hydroxylase activity (in words) [3]: inactive

CC1(C)CC(O)CC(C)(C)N1[O] [4-Hydroxy-2,2,6,6-tetramethylpiperidine-N-oxyl]
Lysyl hydroxylase activity (%) [3, 6]: 130% | increase of the level of lysyl hydroxylase activity [3]: 30-40%

Cc1cc(N2CCCC2)nc(N)[n+]1[O-] [Compound VII (Table II)]
Lysyl hydroxylase activity (%) [3, 5]: 88% | effect on lysyl hydroxylase activity (in words) [3]: inactive

[O-][n+]1ccc(-c2ccccc2)cc1 [4-Phenylpyridine-N-oxide]
Lysyl hydroxylase activity (%) ([4]; 0.3 mM, dissolved in ethanol, final concentration 0.3%, 72 h, % of solvent-treated controls (Table I)): 99%

[O-][n+]1cccc(O)c1 [3-Hydroxypyridine-N-oxide]
Lysyl hydroxylase activity (%) [3, 6]: 99%

Nc1[nH]c(=O)c2nc[nH]c2[n+]1[O-] [Guanine 3-N-oxide]
Lysyl hydroxylase activity (%) ([4]; 1 mM, dissolved in NaOH, final concentration 0.001 N, 72 h, % of solvent-treated controls (Table I)): 132% | increase of the level of lysyl hydroxylase activity [3]: 30-40%

CC1(C)CCC=[N+]1[O-] [5,5-Dimethyl-1-pyrroline-N-oxide]
Lysyl hydroxylase activity (%) [3, 6]: 103%
